US20080306102A1, “NOVEL SPIROOXYINDOLE COMPOUNDS AND DRUGS CONTAINING SAME” (KOWA CO., LTD., priority 2007, published 2008)
Like-named read-outs stand apart in the source and are kept apart here.

Legend:
human 11β-HSD1 = target: T1, human 11β-HSD1 (Homo sapiens, UniProt P28845); test: Human 11β-HSD1 enzyme inhibitory activity (lysate of stably expressing HEK293 cells, cortisol by competitive ELISA); format: biochemical
T1 construct: expressed in transfected cells; sonicated cell suspension used as lysate
T1 sequence (P28845 whole entry): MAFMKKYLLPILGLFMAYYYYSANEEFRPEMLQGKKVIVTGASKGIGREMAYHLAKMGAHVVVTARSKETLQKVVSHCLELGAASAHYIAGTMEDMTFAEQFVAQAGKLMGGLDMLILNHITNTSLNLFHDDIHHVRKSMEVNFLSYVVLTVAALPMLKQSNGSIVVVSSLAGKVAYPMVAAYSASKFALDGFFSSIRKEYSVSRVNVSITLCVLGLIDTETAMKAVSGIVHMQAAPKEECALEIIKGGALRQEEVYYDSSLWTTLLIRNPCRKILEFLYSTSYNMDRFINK
Method: (§1) Human 11β-HSD1-, human 11β-HSD2-Gene Clonings and Establishment of Stably Expressing Cells
(§2) Human 11β-HSD1- and human 11β-HSD2-gene clonings were conducted using as a template a reverse transcription product of human-liver RNA and human-kidney RNA (CELL APPLICATIONS) respectively, by means of PCR cloning with reference to nucleotide sequences of Genbank Accession No. NM_00.5525 and NM 000196. The obtained PCR products of about 0.9 kbp and 1.2 kbp were subcloned into an expression vector pcDNA3.1+/Zeo (Invitrogen).
(§3) Human 11β-HSD1- and human 11β-HSD2-expressing vectors were transfected into human kidney-derived cell line, HEK293 cells, using a transfection reagent, jet PEI (Funakoshi). Selection was conducted with 400 μg/mL of zeocine (Invitrogen) to provide stably-expressing-cell clones. The stably expressing cells were suspended in buffer solution A (20 mmol/L Tris-HCl, pH 7.4, 250 mmol/L sucrose, 1 mmol/L EGTA, 1 mmol/L EDTA, 1 mmol/L MgCl2), sonicated, and then stored at −80° C.
(§4) An enzymatic reaction was conducted using a polystyrene 96-well plate. Each well was added with 1 μL of a test agent dissolved in DMSO and then diluted (0.003 to 3 mmol/L), and further added with 10 μL of cell lysate diluted to a concentration of 0.1 mg/mL to 0.4 mg/mL. Next, 90 μL of buffer solution A containing substrate (100 nmol/L cortisone) and coenzyme (400 μmol/L NADPH) was added and the mixture was incubated at 37° C. for 1 hour. The enzymatic reaction was stopped by treating at 95° C. for 3 minutes. Cortisol that was present in the reaction solution was determined by a competitive ELISA shown below.
Anti-rabbit IgG antibody (Chemi-con) diluted to 2 μg/mL with carbonate buffer solution (pH 9.6) was added in 100 μL each to a 96-well immuno plate (Nunc) and immobilized by incubating at 4° C. overnight. 50 μL of enzymatic reaction solution was put onto the plates, and further, anti-cortisol antibody (Cosmo Bio) and HRP-labeled cortisol (Cosmo Bio), diluted with buffer solution B (25 mmol/L Tris-HCl pH 7.4, 137 mmol/L NaCl, 2.68 mmol/L KCl), were added in 50 μL respectively and incubated at 4° C. overnight. After washed three times with buffer solution B containing 0.05% Tween 20, the plates were allowed to develop color by adding 100 μL of color reagent, TMB (Moss). The color reaction was stopped by 25 μL of 1 mol/L sulfuric acid and the absorbance was determined at 450 nm with a microplate reader (Molecular Device, VersaMax).
The values of human 11β-HSD1 and human 11β-HSD2 activities were subtracted from 100, and the resultant values were regarded as the respective 11β-HSD inhibition rates of example compounds. For each example compound, the value of 50% inhibitory concentration (IC50) was calculated from 11β-HSD inhibition rates at plural concentrations, for 11β-HSD1 and 11β-HSD2 activities.

human 11β-HSD2 = target: T2, human 11β-HSD2 (Homo sapiens, UniProt P80365); test: Human 11β-HSD2 enzyme inhibitory activity (lysate of stably expressing HEK293 cells, cortisol by competitive ELISA); format: biochemical; conditions: human 11β-HSD2, HEK293 cell lysate, 37° C. 1 hour
T2 construct: expressed in transfected cells; sonicated cell suspension used as lysate
T2 sequence (P80365 1-405): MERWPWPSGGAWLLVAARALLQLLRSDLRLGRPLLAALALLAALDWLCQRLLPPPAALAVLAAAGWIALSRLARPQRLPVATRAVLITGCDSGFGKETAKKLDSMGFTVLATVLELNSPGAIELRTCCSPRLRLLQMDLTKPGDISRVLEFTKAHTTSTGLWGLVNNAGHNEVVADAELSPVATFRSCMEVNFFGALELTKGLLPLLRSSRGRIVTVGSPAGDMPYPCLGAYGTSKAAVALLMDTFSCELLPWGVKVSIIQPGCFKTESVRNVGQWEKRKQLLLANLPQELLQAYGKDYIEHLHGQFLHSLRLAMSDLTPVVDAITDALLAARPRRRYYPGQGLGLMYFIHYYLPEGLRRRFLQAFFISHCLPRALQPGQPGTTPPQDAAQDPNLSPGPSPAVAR
Method: as §1, §2, §3, §4
Anti-rabbit IgG antibody (Chemi-con) diluted to 2 μg/mL with carbonate buffer solution (pH 9.6) was added in 100 μL each to a 96-well immuno plate (Nunc) and immobilized by incubating at 4° C. overnight. […] The color reaction was stopped by 25 μL of 1 mol/L sulfuric acid and the absorbance was determined at 450 nm with a microplate reader (Molecular Device, VersaMax). […]

[1] = human 11β-HSD1, HEK293 cell lysate, 100 nmol/L cortisone, 400 μmol/L NADPH, 37° C. 1 hour, read-out: IC50(μM) HSD1

IC50 (human 11β-HSD1; [1]) | IC50 (human 11β-HSD2) | IC50 (human 11β-HSD1; compound A actually synthesized and measured by the applicant, read-out: 50% inhibitory concentration (IC50) for 11β-HSD1 activity) | Compound
0.033 µM |  |  | O=C(COc1ccccc1C(F)(F)F)N1CCC2(CC1)C(=O)Nc1ccccc12 [Example 1, 1′-{2-(2-trifluoromethylphenoxy)acetyl}spiro(indole-3,4′-piperidine)-2(1H)-one]
0.82 µM |  |  | Cc1ccccc1OCC(=O)N1CCC2(CC1)C(=O)Nc1ccccc12 [Example 2, 1′-{2-(2-methylphenoxy)acetyl}spiro(indole-3,4′-piperidine)-2(1H)-one]
0.087 µM | > 30 µM |  | O=C(COc1ccccc1I)N1CCC2(CC1)C(=O)Nc1ccccc12 [Example 10, 1′-{2-(2-iodophenoxy)acetyl}spiro(indole-3,4′-piperdine)-2 (1H)-one]
1 µM |  |  | O=C(COc1ccccc1[N+](=O)[O-])N1CCC2(CC1)C(=O)Nc1ccccc12 [Example 12, 1′-{2-(2-nitrophenoxy)acetyl}spiro(indole-3,4′-piperidine)-2(1H)-one]
0.96 µM |  |  | O=C(COc1cccc(Cl)c1Cl)N1CCC2(CC1)C(=O)Nc1ccccc12 [Example 40, 1′-{2-(2,3-dichlorophenoxy)acetyl}spiro(indole-3,4′-piperidine)-2(1H)-one]
0.41 µM | > 30 µM |  | O=C(COc1ccccc1Br)N1CCC2(CC1)C(=O)Nc1ccccc12 [Example 49]
0.73 µM |  |  | CC(C)(C)c1ccccc1OCC(=O)N1CCC2(CC1)C(=O)Nc1ccccc12 [Example 52, 1′-{2-(2-t-butylphenoxy)acetyl}spiro(indole-3,4′-piperidine)-2(1H)-one]
0.16 µM |  |  | O=C(CSc1ccccc1C(F)(F)F)N1CCC2(CC1)C(=O)Nc1ccccc12 [Example 70, 1′-{2-(2-trifluoromethylphenylthio)acetyl}spiro(indole-3,4′-piperidine)-2(1H)-one]
0.068 µM | > 30 µM |  | CN1C(=O)C2(CCN(C(=O)COc3ccccc3C(F)(F)F)CC2)c2ccccc21 [Example 76, 1-methyl-1′-{2-(2-trifluoromethylphenoxy)acetyl}spiro(indole-3,4′-piperidine)-2-one]
0.67 µM |  |  | CCN1C(=O)C2(CCN(C(=O)COc3ccccc3C(F)(F)F)CC2)c2ccccc21 [Example 80, 1-ethyl-1′-{2-(2-trifluoromethylphenoxy)acetyl}spiro(indole-3,4′-piperidine)-2-one]
0.43 µM |  |  | CCCN1C(=O)C2(CCN(C(=O)COc3ccccc3C(F)(F)F)CC2)c2ccccc21 [Example 81, 1-propyl-1′-{2-(2-trifluoromethylphenoxy)acetyl}spiro(indole-3,4′-piperidine)-2-one]
0.72 µM |  |  | O=C(COc1ccccc1C(F)(F)F)N1CCC2(CC1)C(=O)N(C1CC1)c1ccccc12 [Example 84, 1-cyclopropyl-1′-{2-(2-trifluoromethylphenoxy)acetyl}spiro(indole-3,4′-piperidine)-2-one]
 |  | 3 µM | O=C(N1CCC2(CC1)C(=O)Nc1ccccc12)C1(c2ccc(Cl)cc2)CC1 [compound A, 1′-{[1-(4-Chlorophenyl)cyclopropyl]carbonyl}spiro[indole-3, 4′-piperidin]-2(1H)-one, reference compound]
